Experimental data: patent publication US10961202B2, “Bis-benzimidazole compounds and methods of using the same” (THE SCRIPPS RESEARCH INSTITUTE, priority 2017, dated 2021)

Tested on: r(CUG)12-MBNL1 complex
Assay: Inhibition of the r(CUG)12-MBNL1 complex measured by TR-FRET
Assay type: biochemical
Settings: 80 nM RNA, 60 nM MBNL1-His6

| IC50 (Table M) | IC50 (Table L) | Compound |
| --- | --- | --- |
| > 200 µM | – | N#Cc1cccc(Oc2ccc3nc(-c4ccc(-c5nc6ccc(Oc7cccc(C#N)c7)cc6[nH]5)cc4)[nH]c3c2)c1 [Compound 230, 3,3′-((2,2′-(1,4-phenylene)bis(1H-benzo[d]imidazole-6,2-diyl))bis(oxy))dibenzonitrile] |
| – | > 200 µM | Cn1c(-c2ccc(-c3nc4ccccc4n3C)cc2)nc2ccccc21 [Compound 82] |
| 39.5 µM | – | CN(C)C/C=C/COc1ccc2nc(-c3ccc(-c4nc5ccc(OC/C=C/CN(C)C)cc5[nH]4)cc3)[nH]c2c1 [Compound 233, (2E,2′E)-4,4′-((2,2′-(1,4-phenylene)bis(1H-benzo[d]imidazole-6,2-diyl))bis(oxy))bis(N,N-dimethylbut-2-en-1-amine)] |
| 179 µM | – | Oc1ccc2nc(-c3ccc(-c4nc5ccc(O)cc5[nH]4)cc3)[nH]c2c1 [Compound 190, 2,2′-(1,4-phenylene)bis(1H-benzo[d]imidazol-6-ol)] |
| 12.2 µM | – | CN(C)CCNC(=O)c1ccc(-c2nc3cc(-c4ccc5[nH]c(-c6ccc(C(=O)NCCOCCOCCOCCOCCN=[N+]=[N-])cc6)nc5c4)ccc3[nH]2)cc1 [Compound 397] |
| 9.84 µM | – | Cc1cc(-c2nc3cc(-c4ccc5[nH]c(-c6ccc(OCCCN(C)C)c(C)c6)nc5c4)ccc3[nH]2)ccc1O [Compound 365] |
| 39 µM | – | C[C@@H](C(=O)N(C)[C@@H](C)C(=O)N(C)[C@@H](C)C(=O)N(C)[C@@H](C)C(=O)N(CCCCN(C)C(=O)c1ccc(-c2nc3cc(-c4ccc5[nH]c(-c6ccc(C(=O)NCCN(C)C)cc6)nc5c4)ccc3[nH]2)cc1)CC(N)=O)N(C)C(=O)c1ccc(-c2nc3cc(-c4ccc5[nH]c(-c6ccc(C(=O)NCCN(C)C)cc6)nc5c4)ccc3[nH]2)cc1 [Compound 416] |
| – | 37 µM | CCOC(CNC(=N)Nc1ccc2nc(-c3ccc(-c4nc5ccc(N)cc5[nH]4)cc3)[nH]c2c1)OCC [Compound 17, 1-(2-(4-(5-amino-1H-benzo[d]imidazol-2-yl)phenyl)-1H-benzo[d]imidazol-5-yl)-3-(2,2-diethoxyethyl)guanidine] |
| 9.6 µM | – | CN(C)CCNC(=O)c1ccc(-c2nc3cc(-c4ccc5[nH]c(-c6ccc(C(=O)NCCCN=[N+]=[N-])cc6)nc5c4)ccc3[nH]2)cc1 [Compound 399] |
| – | 34 µM | Nc1ccc2nc(-c3ccc(-c4nc5ccc(Nc6ncc[nH]6)cc5[nH]4)cc3)[nH]c2c1 [Compound 19, 2-(4-(5-amino-1H-benzo[d]imidazol-2-yl)phenyl)-N-(1H-imidazol-2-yl)-1H-benzo[d]imidazol-5-amine] |
| 68.7 µM | – | CN(C)C[C@H]1CC[C@H](COc2ccc3nc(-c4ccc(-c5nc6ccc(OC[C@H]7CC[C@H](CN(C)C)CC7)cc6[nH]5)cc4)[nH]c3c2)CC1 [Compound 218, 1,1′-((1r,1′r,4r,4′r)-(((1,4-phenylenebis(1H-benzo[d]imidazole-2,6-diyl))bis(oxy))bis(methylene))bis(cyclohexane-4,1-diyl))bis(N,N-dimethylmethanamine)] |
| 1.2 µM | – | CN(C)CCNC(=O)c1ccc(-c2nc3ccc(-c4ccc5nc(-c6ccc(C(=O)NCC7CCCCN7C(=O)c7ccc(-c8nc9ccc(-c%10ccc%11nc(-c%12ccc(C(=O)NCCN(C)C)cc%12)[nH]c%11c%10)cc9[nH]8)cc7)cc6)[nH]c5c4)cc3[nH]2)cc1 (stereo not shown) [Compound 440] |
| 18.7 µM | – | CN(C)CCCCOc1ccc(-c2nc3cc(-c4ccc5[nH]c(-c6ccc(O)cc6)nc5c4)ccc3[nH]2)cc1 [Compound 363] |
| 22.6 µM | – | C[C@@H](NC(=O)CN(CCN)C(=O)c1ccc(-c2nc3cc(-c4ccc5[nH]c(-c6ccc(OCCCN(C)C)cc6)nc5c4)ccc3[nH]2)cc1)C(=O)N[C@H](C)C(=O)N[C@H](C)C(=O)N[C@H](C)C(=O)N(CCNC(=O)c1ccc(-c2nc3cc(-c4ccc5[nH]c(-c6ccc(OCCCN(C)C)cc6)nc5c4)ccc3[nH]2)cc1)CC(N)=O [Compound 447] |
| – | 6.7 µM | CN(C)CCNC(=O)c1ccc2nc(-c3ccc(-c4nc5ccc(C(=O)NCCN(C)CCCCc6cn(CCCN)nn6)cc5[nH]4)cc3)[nH]c2c1 [Compound 74] |
| 19.4 µM | – | CN(C)CCCCCCOc1ccc2nc(-c3ccc(-c4nc5ccc(O)cc5[nH]4)cc3)[nH]c2c1 [Compound 209] |
| 154 µM | – | OCCCCOc1ccc2nc(-c3ccc(-c4nc5ccc(OCCCCO)cc5[nH]4)cc3)[nH]c2c1 [Compound 225] |

| IC50 (Table M) | IC50 (Table L) | Compound |
| --- | --- | --- |
| > 200 µM | – | CN(C)Cc1cccc(Oc2ccc3nc(-c4ccc(-c5nc6ccc(Oc7cccc(CN(C)C)c7)cc6[nH]5)cc4)[nH]c3c2)c1 [Compound 243] |
| 47.1 µM | – | CN(C)CCCOc1ccc2nc(-c3ccc(-c4nc5ccc(SCCCN(C)C)cc5[nH]4)cc3)[nH]c2c1 [Compound 228, 3-((2-(4-(6-(3-(dimethylamino)propoxy)-1H-benzo[d]imidazol-2-yl)phenyl)-1H-benzo[d]imidazol-6-yl)thio)-N,N-dimethylpropan-1-amine] |
| > 200 µM | – | CN(C)CCCOc1ccc2nc(-c3ccc(-c4nc5ccc(OCCCC(=O)O)cc5[nH]4)cc3)[nH]c2c1 [Compound 248, 4-((2-(4-(5-(3-(dimethylamino)propoxy)-1H-benzo[d]imidazol-2-yl)phenyl)-1H-benzo[d]imidazol-5-yl)oxy)butanoic acid] |
| > 200 µM | – | CN(C)CCCOc1ccc2c(c1)nc(-c1ccc(-c3nc4ccc(OCCCN(C)C)cc4n3C)cc1)n2C [Compound 311] |
| > 200 µM | – | OCCCOc1ccc2nc(-c3ccc(-c4nc5ccc(OCCCO)cc5[nH]4)cc3)[nH]c2c1 [Compound 223, 3,3′-((1,4-phenylenebis(1H-benzo[d]imidazole-2,5-diyl))bis(oxy))bis(propan-1-ol)] |
| – | > 200 µM | Oc1ccc(-c2nc3cc(-c4ccc5[nH]c(-c6ccc(O)cc6)nc5c4)ccc3[nH]2)cc1 [Compound 105] |
| – | 76 µM | Nc1ccc2nc(-c3ccc(-c4nc5ccc(Nc6ncccn6)cc5[nH]4)cc3)[nH]c2c1 [Compound 5, 2-(4-(5-amino-1H-benzo[d]imidazol-2-yl)phenyl)-N-(pyrimidin-2-yl)-1H-benzo[d]imidazol-5-amine] |
| > 200 µM | – | Cc1cc(-c2nc3ccc(OCCCN(C)C)cc3[nH]2)c(C)cc1-c1nc2ccc(OCCCN(C)C)cc2[nH]1 [Compound 271, (3-[[2-(4-[6-[3-(dimethylamino)propoxy]-1H-1,3-benzodiazol-2-yl]-2,5-dimethylphenyl)-1H-1,3-benzodiazol-6-yl]oxy]propyl)dimethylamine] |
| 28.8 µM | – | [N-]=[N+]=NCCCOc1ccc(-c2nc3cc(-c4ccc5[nH]c(-c6ccc(OCCCN)cc6)nc5c4)ccc3[nH]2)cc1 [Compound 379] |
| – | 15.2 µM | N=C(N)c1ccc(-c2nc3cc(-c4ccc5[nH]c(-c6ccc(C(=N)N)cc6)nc5c4)ccc3[nH]2)cc1 [Compound 99] |
| 3.1 µM | – | CN(C)CCNC(=O)c1ccc(-c2nc3ccc(-c4ccc5nc(-c6ccc(C(=O)N7CCCC8C9CCCN(C(=O)c%10ccc(-c%11nc%12ccc(-c%13ccc%14nc(-c%15ccc(C(=O)NCCN(C)C)cc%15)[nH]c%14c%13)cc%12[nH]%11)cc%10)C9CCC87)cc6)[nH]c5c4)cc3[nH]2)cc1 (stereo not shown) [Compound 452] |
| 73.2 µM | – | CN1CCN(CCNC(=O)c2ccc(-c3nc4cc(-c5ccc6[nH]c(-c7ccc(C(=O)O)cc7)nc6c5)ccc4[nH]3)cc2)CC1 [Compound 343] |
| – | > 200 µM | Cn1c(-c2ccc(-c3nc4ccc(N)cc4n3C)cc2)nc2cc(N)ccc21 [Compound 84, 2-[4-(6-amino-1-methyl-1H-benzimidazol-2-yl)phenyl]-1-methyl-1H-benzimidazol-5-amine] |
| 26 µM | – | CN(C)CCCOc1ccc2nc(-c3ccc(-c4nc5ccc(C(=O)NCCN6CCCCC6)cc5[nH]4)cc3)[nH]c2c1 [Compound 237, 2-(4-(6-(3-(dimethylamino)propoxy)-1H-benzo[d]imidazol-2-yl)phenyl)-N-(2-(piperidin-1-yl)ethyl)-1H-benzo[d]imidazole-6-carboxamide] |
| 34.4 µM | – | CN(C)CCNC(=O)c1ccc(-c2nc3cc(-c4ccc5[nH]c(-c6ccc(C(=O)NC7CCCCC7NC(=O)c7ccc(-c8nc9cc(-c%10ccc%11[nH]c(-c%12ccc(C(=O)NCCN(C)C)cc%12)nc%11c%10)ccc9[nH]8)cc7)cc6)nc5c4)ccc3[nH]2)cc1 (stereo not shown) [Compound 410] |
| 8 µM | – | C[C@@H](NC(=O)CN(CCN)C(=O)c1ccc(-c2nc3cc(-c4ccc5[nH]c(-c6ccc(C(=O)NCCN(C)C)cc6)nc5c4)ccc3[nH]2)cc1)C(=O)N[C@H](C)C(=O)N[C@H](C)C(=O)N[C@H](C)C(=O)N(CCNC(=O)c1ccc(-c2nc3cc(-c4ccc5[nH]c(-c6ccc(C(=O)NCCN(C)C)cc6)nc5c4)ccc3[nH]2)cc1)CC(N)=O (single isomer, unassigned) [Compound 443] |
| > 200 µM | – | CN(C)CCCOc1ccc2nc(-c3ccc(-c4nc5ccc(C(=O)OC(C)(C)C)cc5[nH]4)cc3)[nH]c2c1 [Compound 254, tert-butyl 2-(4-(6-(3-(dimethylamino)propoxy)-1H-benzo[d]imidazol-2-yl)phenyl)-1H-benzo[d]imidazole-6-carboxylate] |

| Compound | IC50 (Table M) | IC50 (Table L) |
| --- | --- | --- |
| CN(C)CCNC(=O)c1ccc(-c2nc3ccc(-c4ccc5nc(-c6ccc(C(=O)NCCOCCOCc7cn(CCCNCC(=O)N8CCCC8C(=O)N8CCC[C@H]8C(=O)N(CCCn8cc(COCCOCCNC(=O)c9ccc(-c%10nc%11ccc(-c%12ccc%13nc(-c%14ccc(C(=O)NCCN(C)C)cc%14)[nH]c%13c%12)cc%11[nH]%10)cc9)nn8)CC(N)=O)nn7)cc6)[nH]c5c4)cc3[nH]2)cc1 (stereo partly shown) [Compound 437] | 7.5 µM | – |
| NC(=O)Cc1ccc(-c2nc3cc(-c4ccc5[nH]c(-c6ccc(CC(N)=O)cc6)nc5c4)ccc3[nH]2)cc1 [Compound 124, 2,2′-(1H,1′H-[5,5′-bibenzo[d]imidazole]-2,2′-diylbis(4,1-phenylene))diacetamide] | – | 170 µM |
| C[C@@H](C(=O)N(C)[C@@H](C)C(=O)N(C)[C@@H](C)C(=O)N(C)[C@@H](C)C(=O)N(CCCn1cc(COCCOCCN(C)C(=O)c2ccc(-c3nc4ccc(-c5ccc6nc(-c7ccc(C(=O)NCCN(C)C)cc7)[nH]c6c5)cc4[nH]3)cc2)nn1)CC(N)=O)N(C)C(=O)CNCCCn1cc(COCCOCCN(C)C(=O)c2ccc(-c3nc4ccc(-c5ccc6nc(-c7ccc(C(=O)NCCN(C)C)cc7)[nH]c6c5)cc4[nH]3)cc2)nn1 [Compound 430] | 7.7 µM | – |
